Assay: Human HepG2 cell viability assay in 384 well format
Format: toxicity, cell-based
Parameters: dose 125 nL, time 70.5 hour; cytotoxicity at 70.5 h: concentration not given beside the values
Conditions: HepG2 cells, read-out: Inhibition

SMILES	cytotoxicity at 70.5 h [%]
COC(=O)C(NC(=O)c1cc(F)cc(F)c1)c1cccnc1 (stereo unspecified)	-8.87
Cc1cnn(CCCn2ncc(N3CCC(CN)C3)cc2=O)c1 (stereo unspecified)	9.78
Cc1ccccc1C1CCCN(C(=O)c2c[nH]c(=O)c(Cl)c2)C1 (stereo unspecified)	-12
CCN(CC)S(=O)(=O)N(CC)Cc1ccc2c(c1)OCCO2	-10.6
CN(CC(F)(F)F)C(=O)CNC(=O)N1CCC(N2CCCC2)C1 (stereo unspecified)	-9.53
COCCN1CCN(Cc2cccnc2)[C@H]2CS(=O)(=O)C[C@H]21	21.4
C/C=C(\C)CN1C[C@H](NC(=O)CN2CCCC2=O)[C@@H](c2ccc(C)o2)C1	9.35
CCn1cc(N2Cc3nc(N)ncc3C2=O)cn1	29.8
CN(Cc1cn2c(n1)CN(C(=O)N(C)C)CC2)Cc1ccco1	-5.21
COc1ccc(CN2Cc3cn(C)nc3C(COCC3CC3)C2)cc1 (stereo unspecified)	-4.4
CC(C)(C)c1n[nH]c(C2CN(CCc3cccs3)CCO2)n1 (stereo unspecified)	3.37
Cn1cc(C(C)(O)CNc2ccc(Cl)c(C#N)n2)cn1 (stereo unspecified)	5.37
Cc1nn(C)cc1CN(C)C(=O)c1cccnc1	8.22
CCc1nc2n(n1)CC(NCC1=Cc3ccc(OC)cc3OC1)CC2 (stereo unspecified)	2.24
O=C(Cc1ccc2c(c1)OCC2)Nc1nc(C(F)(F)F)n[nH]1	0.788
CN(Cc1ccc(C(=O)Nc2sccc2C#N)cc1)Cc1ccno1	-5.41
CC1(C)CN=C(N2CCN(CC3CCOC3)CC2)S1 (stereo unspecified)	-12.3
O=C(O)c1ccc(N2CCC(Oc3ccc(Cl)cc3)CC2)nc1	-12.3
O=c1c(S(=O)(=O)N2CCCCC2)cccn1Cc1cccnc1	-9.28

SMILES	cytotoxicity at 70.5 h [%]
CC(C)c1nccn1Cc1cc(C(=O)NCC(F)(F)F)n[nH]1	-9.18
OCC(O)CSCc1cn(-c2ccc(Cl)c(Cl)c2)nn1 (stereo unspecified)	-5.28
CCOCCCNC(=O)C1CCC(=O)N(CCc2ccc(Cl)cc2)C1 (stereo unspecified)	-7.25
CN1CCCC1c1ccc(C(=O)N2CCc3ccccc3C2)s1 (stereo unspecified)	17.6
Cc1nn(C)c(C)c1C(=O)NC(C)CC(=O)c1cccs1 (stereo unspecified)	-11.1
CS(=O)(=O)N1Cc2nc(C(=O)NCc3ccccc3)oc2C1	-5.1
O=S(=O)(Cc1ccccc1)NCC1CCN(c2cnccn2)CC1	4.32
Cc1ccc(N(CC(=O)NCc2nnc3n2CCC3)S(C)(=O)=O)cc1	5.02
Cc1ccccc1S(=O)(=O)N1CCC(c2[nH]ncc2C)C1 (stereo unspecified)	-8.88
Cc1nc(N2C[C@H]3CC[C@@H](C2)N3)nc2cc(S(C)(=O)=O)ccc12	-2.58
Cc1cc(CN(C)C(=O)Nc2cnc3c(c2)c(C)nn3C)no1	-8.11
CC1CN(Cc2noc(C3CC3)n2)CCN1Cc1nccn1C (stereo unspecified)	4.66
CCC(C)N(Cc1cccnc1)C(=O)CCSC (stereo unspecified)	-8.8
CCN(CC)C(=O)Cn1c(=O)n(Cc2ccco2)c2ncccc21	-3.1
CN1CC(=O)N(c2ccsc2)CC12CCN(C(=O)c1ccccc1)C2 (stereo unspecified)	-12.7
C=C(C)CNC1CCCN(Cc2noc(C3CC3)n2)C1 (stereo unspecified)	-5.26
CCN(CC)Cc1ccc(C(=O)N2CCCC2Cn2cccn2)cc1 (stereo unspecified)	-7.71
CC(C)c1nc(-c2cc(C(=O)N3CCN(C)CC3)c3ccccn23)cs1	9.79
CC(C)Cc1cc(CNC(=O)C2CCCN(C(=O)N(C)C)C2)no1 (stereo unspecified)	-2.31

SMILES	cytotoxicity at 70.5 h [%]
Cc1nnc2n1CCN(CCC(=O)Nc1sccc1C#N)C2	-12.9
Cc1cnn(CC2CCCN2CC(=O)N(C)CCC#N)c1 (stereo unspecified)	-7.49
CC(=O)N1CCC(CCNC(C)Cc2ccc(F)cc2)CC1 (stereo unspecified)	-13.1
CC(=O)Nc1nc(CN2CCCC2Cn2cncn2)cs1 (stereo unspecified)	35.6
Cc1n[nH]c(C)c1CCC(=O)NCC1CCCN(C2CCCC2)C1 (stereo unspecified)	30.3
Cc1cccc(CN2CCCC(c3nccs3)C2)n1 (stereo unspecified)	-1.28
O=C1CC(c2ccco2)c2sc(C(=O)O)c(-c3ccccc3)c2N1 (stereo unspecified)	-13.5
CCOCC1CN(C(=O)c2ccncn2)Cc2cnn(C)c21 (stereo unspecified)	-3.18
CNCc1cnc(Nc2ccccc2)nc1	-5.59
CCc1c(C)nn2c(O)cc(C3CCN(C(=O)c4ccccn4)C3)nc12 (stereo unspecified)	-2.35
CC(C)C(=O)NS(=O)(=O)c1ccc(C#N)cc1C(F)(F)F	-2.54
Cc1c(C(=O)NCC(C)C)nnn1-c1cccc2c1CCN(C(C)C)C2	-0.43
Cc1nc(CN2CCOC(c3nc(C(C)C)n[nH]3)C2)oc1C (stereo unspecified)	6.2
CC(=O)c1cnc(NCCN2CCCC(c3ccccc3)C2)nc1C (stereo unspecified)	14.2
COc1ccc(CNC2CCCN(Cc3noc(C)n3)C2)cc1F (stereo unspecified)	23.4
Cc1noc(C)c1CN1CCC(N(C)Cc2nnc(C3CC3)n2C)C1 (stereo unspecified)	-2.84
CC(C)CS(=O)(=O)CC(=O)NC1CCCCNC1=O (stereo unspecified)	-7.58
Cc1cnc2c(c1NCc1ccncc1)c(=O)n(C)c(=O)n2C	-2.95
